Values of other authors, collected in patent US20150190331A1, “NAIL LACQUER COMPOSITION WITH HYPOSENSITIVITY” (Pakaly Enterprise Co., Ltd., priority 2014, published 2015).

Test system: guinea pigs
Details: in guinea pigs; International Journal of Toxicology 24(Suppl 5): 53-100, 2005

Question: For `C=C(C)C(=O)OC1CCCCC1` [Cyclohexyl Methacrylate], which sensitizer strength is on record?
Answer: moderate sensitizers

Question: For Urethane Methacrylate, which sensitizer strength is on record?
Answer: moderate sensitizers

Question: Which sensitizer strength does the source give for `C=C(C)C(=O)OCCCCCC` [Hexyl Methacrylate] here?
Answer: moderate sensitizers

Question: For PEG-4 Dimethacrylate, which sensitizer strength is on record?
Answer: not sensitizers

Question: With `C=C(C)C(=O)OCC(CC)(COC(=O)C(=C)C)COC(=O)C(=C)C` [Trimethylolpropane Trimethacrylate] as the molecule, how does the sensitizer strength read?
Answer: strong sensitizers

Question: Which sensitizer strength does the source give for `C=C(C)C(=O)OCCCCCCCCCCCC` [Lauryl Methacrylate] here?
Answer: strong sensitizers

Question: Which sensitizer strength does the source give for `C=C(C)C(=O)OCCCC` [Butyl Methacrylate] here?
Answer: moderate sensitizers

Question: With `C=C(C)C(=O)OCCO` [HEMA, hydroxyethylmethacrylate] as the molecule, how does the sensitizer strength read?
Answer: strong sensitizers

Question: Which sensitizer strength does the source give for `C=C(C)C(=O)OCCOCCOCCOC(=O)C(=C)C` [Triethylene Glycol Dimethacrylate] here?
Answer: not sensitizers

Question: Which sensitizer strength does the source give for `C=C(C)C(=O)OCC(O)COc1ccc(C(C)(C)c2ccc(OCC(O)COC(=O)C(=C)C)cc2)cc1` (centres unmarked) [Isopropylidenediphenyl Bisglycidyl Methacrylate] here?
Answer: strong sensitizers

Question: Which sensitizer strength does the source give for `C=C(C)C(=O)OCCCO` [Hydroxypropyl Methacrylate] here?
Answer: weak sensitizer
